The OPERA property sets (Mansouri et al. 2018)

Details: for log10 BCF / log10 biotransformation half-life (days): fish

Structure (SMILES)	boiling point [°C]	melting point [°C]	further results
CCCCCCCCCCCCCCCCC(=O)O	364	61.3	log10 vapour pressure (mmHg): -7.21
CS(=O)(=O)c1cc(C(F)(F)F)ccc1C(=O)c1cnoc1C1CC1	–	140	log10 Henry constant (atm·m³/mol): -9.73; log10 vapour pressure (mmHg): -8.12
Cc1ccc(N=C=S)cc1	237	25.5	–
CC(C)=CCC[C@@H](C)C1=C(O)C(=O)C(C)=CC1=O	–	104	–
CCN(CC)CCC1(c2ccccc2)C(=O)Oc2ccccc21 (stereo unspecified)	–	43.4	–
Cc1cc[nH]c1	143	-48.4	–
Cc1c([N+](=O)[O-])cc(N)cc1[N+](=O)[O-]	–	171	–
FC(Cl)(Cl)C(Cl)(Cl)Cl	135	101	–
O=C=NS(=O)(=O)Cl	107	-44	–
C1CSCS1	175	-50	–
CC(=O)O.CCCCCCCCCCCCNC(=N)N	–	136	log10 vapour pressure (mmHg): -6.82
O=C1NC(=O)c2ccccc21	–	238	ready biodegradability: readily biodegradable
Cc1ccc2ccc(=O)oc2c1	–	128	–
O=S(=O)(F)c1ccccc1	204	–	–
CC(=O)c1c(C)c([N+](=O)[O-])c(C(C)(C)C)c([N+](=O)[O-])c1C	–	136	–
CCOC=C(C#N)C#N	–	66	–
Clc1ccc(Oc2cc(Cl)ccc2Cl)cc1	–	–	log10 vapour pressure (mmHg): -3.76
CCNc1nc(Cl)nc(NC(C)C)n1	–	173	log10 Koc (L/kg): 2.24; log10 vapour pressure (mmHg): -6.54; ready biodegradability: not readily biodegradable; log10 BCF: 0.9; log10 biotransformation half-life (days): -1.05
O=C(OCC1(COC(=O)c2cccnc2)CCCC(COC(=O)c2cccnc2)(COC(=O)c2cccnc2)C1O)c1cccnc1	–	178	–
CC(CCl)CCl	136	–	–

Structure (SMILES)	boiling point [°C]	melting point [°C]	further results
CCCCCCCCCCCCCCCCCCNC(=O)[C@H](O)[C@@H](O)[C@H](O)[C@H](O)CO	–	–	ready biodegradability: not readily biodegradable
NCc1cccc(CN)c1	247	–	ready biodegradability: not readily biodegradable; log10 BCF: 0.43
CC1CCSC1 (stereo unspecified)	139	–	–
CC(=O)NC1C(O)OC(CO)C(O)C1O (stereo unspecified)	–	–	ready biodegradability: readily biodegradable
COC(=O)c1ccccc1CS(=O)(=O)NC(=O)Nc1nc(OC)cc(OC)n1	–	187	log10 Koc (L/kg): 2.5; log10 vapour pressure (mmHg): -13.7
COc1ccc(-c2cc(=O)c3c(O)cc(O)cc3o2)cc1	–	263	–
C[C@]12C=CC(=O)C=C1CC[C@H]1[C@@H]3C[C@@H](O)[C@](O)(C(=O)CO)[C@@]3(C)C[C@H](O)[C@@]12F	–	270	–
CCCCCCCCCCCCCCCCCCCCCCCCCCCCCCCCCCCCCCCC	–	82	ready biodegradability: readily biodegradable
C1CCSSC1	–	32.5	–
CNO	–	87.5	log10 vapour pressure (mmHg): 0.222
Clc1cc(-c2ccccc2)c(Cl)c(Cl)c1Cl	–	–	log10 Koa: 8.74; log10 vapour pressure (mmHg): -4.43
N#CC1CCC1	150	–	–
CCC(C)c1ccccc1OC(=O)NC (stereo unspecified)	–	31.5	log10 Koc (L/kg): 1.71; log10 vapour pressure (mmHg): -3.85; ready biodegradability: not readily biodegradable; log10 BCF: 1.41; log10 biotransformation half-life (days): -0.52
O=[N+]([O-])c1cccc(SSc2cccc([N+](=O)[O-])c2)c1	–	84	–
C=CCC(O)CC=C	151	–	–
O=C1CCCN1CCO	295	20	–
ClC(c1ccccc1)c1ccccc1	–	16	–
CC1OC(OCC2OC(Oc3c(-c4ccc(O)cc4)oc4cc(OC5OC(C)C(O)C(O)C5O)cc(O)c4c3=O)C(O)C(O)C2O)C(O)C(O)C1O (stereo unspecified)	–	250	–
Clc1cc(-c2cc(Cl)c(Cl)c(Cl)c2)cc(Cl)c1Cl	–	–	log10 BCF: 5.97
CC1(C)C(=O)N(Cl)C(=O)N1Cl	–	132	–

Structure (SMILES)	boiling point [°C]	melting point [°C]	further results
CCCCCCS	151	-81	log10 vapour pressure (mmHg): 0.624
CCCCCCCCCCCCCCCCCCC(C)c1ccccc1 (stereo unspecified)	–	29	–
COc1c(C)cccc1C	182	–	–
NNC(=O)c1ccc(Br)cc1	–	166	–
Cc1ccccc1N(C)C	194	-60	log10 vapour pressure (mmHg): -0.0643
COc1cccc(OC)c1C(C)=O	–	69	–
O=C1CCCCCC1c1ccccc1 (stereo unspecified)	–	22.2	–
CCCCn1cccc1	170	–	–
Cc1cccc2ccccc12	245	-30.4	log10 Henry constant (atm·m³/mol): -3.29; log10 Koc (L/kg): 3.36; log10 biodegradation half-life (days): 0.962; log10 vapour pressure (mmHg): -1.17; ready biodegradability: not readily biodegradable; log10 BCF: 1.73
C=CCC(=O)OCC	119	–	–
COc1cc(C(=O)O)ccc1O	–	212	ready biodegradability: readily biodegradable
CN(C)c1ccccc1N	218	–	–
CC(C)(c1cc(Br)c(O)c(Br)c1)c1cc(Br)c(O)c(Br)c1	–	181	ready biodegradability: not readily biodegradable; log10 BCF: 2.43
CC(=O)OCCCOC(C)=O	210	–	–
CCCCOCCOCCOCCO	278	-30	log10 vapour pressure (mmHg): -2.6
Cc1ccsc1/C=C/C1=NCCCN1C	–	240	–
Oc1cc(O)cc(O)c1	–	218	ready biodegradability: readily biodegradable
C[C@H](NC(=O)c1ccccc1)C(=O)O (racemic)	–	166	–
CC(C)N1C(=O)c2ccccc2[N]([Na])S1(=O)=O	–	–	log10 Koc (L/kg): 1.54
Cc1cc2ncn(C3OC(CO)C(O)C3O)c2cc1C (stereo unspecified)	–	198	–
